# Experimental data from patent publication US12043601B2, “N-substituted-1H-1,2,4-triazole-3-carboxamides, analogues thereof, and methods of treatment using same” (THE REGENTS OF THE UNIVERSITY OF COLORADO, priority 2018, dated 2024).
# Values joined by “and” are separate entries in the source; they are usually repeats but may differ in a detail not shown here. Equal values may be shown once. “Also recorded” adds a separate entry of the source. Read-outs that look alike come from different tables or passages of the source.
# Experiments:
# [1] = test system: Salmonella strain 14028s; test: Growth and survival assay in combination with antibiotics that target DNA replication; format: cell-based; conditions: #21 8 μg/ml, #23 16 μg/ml; EG media, 37° C., 20 hrs
# Description: Salmonella strain 14028s was grown overnight at 37° C. with shaking in LB broth. Cell density was measured by spectrometer by following OD600. Cells were centrifuged and washed once with EG Minimal Salts Media (57.4 mM K2HPO4, 1.7 mM MgSO4, 9.5 mM Citric acid, 16.7 mM H5NNaPO4, and 0.4% D-Glucose, pH 7.0). The specimens were then resuspended with EG media and adjusted to the final concentration of 1×10^5/ml.
# One hundred microliters of the cell dilution were plated onto LB agar plate to verify the starting concentration. Ten 5-ml cell culture tubes were prepared, and the diluted cells were transferred to the culture tubes at 1 ml/tube. The first culture tube was reserved as the control. The remaining nine tubes were divided into 3 groups (3 tubes each), which were treated with Nitrofurazone, 4-Nitroquinoline N-oxide, and Mitomycin C at 8 μM, 8 μM, and 0.75 μM, respectively. Within each group, two of the tubes additionally received compounds #21 or #23 at 8 μg/ml and 16 μg/ml, respectively. All tubes were then incubated with shaking at 37° C. for 20 hrs. Cells were collected, diluted, plated on LB agar plates, and subsequently counted. Survival percentages were calculated using bacteria counts divided by starting concentration.
# [2] = target: T1, DksA (Salmonella typhimurium, UniProt P0A1G5); test: DksA-dependent livJ in vitro transcription; format: biochemical; conditions: livJ promoter; for IVT: concentration showing activity
# Procedure, shortened: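 Template plasmid (5 nM) was transcribed for 10 min at 37° C by 5 nM E. coli RNA polymerase holoenzyme with 5 μM DksA, 200 μM each NTP, pH 7.4 HEPES buffer. Compounds were at 0.1-100 nM, initial tests at 0.1 and 1 μM on livJ promoter. Transcripts were quantified by RT-qPCR against a standard curve; IC50 at 50% inhibition from 3 independent experiments.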
# [3] = test system: Salmonella strain 14028s; test: Minimum inhibitory concentration in EG minimal media; format: cell-based, Salmonella Typhimurium; conditions: for Growth in EG at concentration tested 1 μg/ml / Growth in EG at concentration tested 2 μg/ml / Growth in EG at concentration tested 4 μg/ml / Growth in EG at concentration tested 8 μg/ml / Growth in EG at concentration tested 16 μg/ml: EG minimal media, 37° C.
# Procedure, shortened: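 Wild-type Salmonella strain 14028s was cultured overnight (18.5 h), then diluted into EG minimal media at roughly 10^5 CFU/mL. Tubes were shaken at 37° C. for 18 h and checked for bacterial growth, a proxy for DksA-dependent metabolic regulation. The MIC was the lowest compound concentration that prevented growth.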
# [4] = Compound solubility; format: physicochemical; conditions: for Compound Solubility, 1 μM: solvent at 1 μM; for Compound Solubility, 10 μM: solvent at 10 μM; for Compound Solubility, 100 μM: solvent at 100 μM; for Compound Solubility, 1 mM: solvent at 1 mM; for Compound Solubility, 10 mM: solvent at 10 mM; for Compound Solubility, 16 mg/ml: solvent at 16 mg/ml
# [5] = target: T1, DksA; test: DksA-dependent activation of hisG in vitro transcription; format: biochemical; conditions: as little as 0.1 μM
# Description: To measure the potency of a compound in inhibition of DksA biological function, rpsMtranscripts in vitro was determined by non-radioactive in vitro transcription reactions with qPCR analysis with divergent compounds. […] The amount of cDNA synthesized for 1 h at 42° C. was quantified by real-time PCR (qRT-PCR). The copy number of specific transcripts was calculated to the standard curve generated with known gene copy concentrations. […] Standard deviation was calculated from 3 independent experiments.
# The compounds obtained in this screen were further analyzed for binding to the acidic pocket at the tip of DksA coiled-coil domain using the computer search program Dock. […] The compounds selected were further refined according to energy minimization as calculated by the CNS program. 23 compounds were obtained from MolPort and they were tested for their ability to interfere with DksA in a high throughput screen that combined in vitro transcription with highly specific and quantitative qRT-PCR. […]
# [6] = test system: intracellular Salmonella in J774 macrophage-like cells; test: Intracellular growth of Salmonella in macrophages; format: cell-based; conditions: for Antimicrobial activity against intracellular Salmonella growing in macrophages: J774 cells, cell culture media containing 10% fetal bovine serum
# [7] = test system: T2, E. coli RNA polymerase holoenzyme; test: rpsM in vitro transcription by RNA polymerase itself; format: biochemical; conditions: up to 10 μM
# T2 construct: purchased NEB, Ipswich, MA
# Description: To measure the potency of a compound in inhibition of DksA biological function, rpsMtranscripts in vitro was determined by non-radioactive in vitro transcription reactions with qPCR analysis with divergent compounds. […] The in vitro transcription was carried out at 37° C. for 10 min, and then terminated at 70° C. for 10 min. To remove template DNA after treated with DNaseI, DNA-free DNA Removal kit (ThermoFisher) was used according to manufacturer's direction. The resulting materials were used as templates to generate cDNA with 100 U MMLV reverse transcriptase (Promega), 0.45 μM gene specific primer, and 20 U RNase inhibitor (Promega). The amount of cDNA synthesized for 1 h at 42° C. was quantified by real-time PCR (qRT-PCR). The copy number of specific transcripts was calculated to the standard curve generated with known gene copy concentrations. The IC50 is the concentration at which the curve passes through the 50% inhibition level. Standard deviation was calculated from 3 independent experiments.
# The compounds obtained in this screen were further analyzed for binding to the acidic pocket at the tip of DksA coiled-coil domain using the computer search program Dock. The analysis identified over 400 compounds. […] The compounds selected were further refined according to energy minimization as calculated by the CNS program. […]
# [8] = test system: J774 cells; test: Lactate dehydrogenase (LDH) release from infected host cells; format: cell-based; conditions: 32 μg/ml; 18 h after infection with wild-type or ΔdksA Salmonella; p=0.3
# [9] = target: T1, DksA; test: DksA-mediated repression of rpsM in vitro transcription (IVT, qRT-PCR); format: biochemical
# Description: To measure the potency of a compound in inhibition of DksA biological function, rpsMtranscripts in vitro was determined by non-radioactive in vitro transcription reactions with qPCR analysis with divergent compounds. Briefly, 5 nM pTIM-rpsMplasmid was mixed with […] of compounds in 10 μl reaction buffer (40 mM HEPES [pH 7.4], 2 mM MgCl2, 60 mM potassium glutamate, 0.05% NP-40, 200 μM ATP, 200 μM GTP, 200 μM CTP, 200 μM UTP, and 5 nM E. coli RNA polymerase holoenzyme (NEB, Ipswich, MA) with 5 μM DksA. The in vitro transcription was carried out at 37° C. for 10 min, and then terminated at 70° C. for 10 min. To remove template DNA after treated with DNaseI, DNA-free DNA Removal kit (ThermoFisher) was used according to manufacturer's direction. The resulting materials were used as templates to generate cDNA with 100 U MMLV reverse transcriptase (Promega), 0.45 μM gene specific primer, and 20 U RNase inhibitor (Promega). The amount of cDNA synthesized for 1 h at 42° C. was quantified by real-time PCR (qRT-PCR). The copy number of specific transcripts was calculated to the standard curve generated with known gene copy concentrations. The IC50 is the concentration at which the curve passes through the 50% inhibition level. Standard deviation was calculated from 3 independent experiments.
# The compounds obtained in this screen were further analyzed for binding to the acidic pocket at the tip of DksA coiled-coil domain using the computer search program Dock. The analysis identified over 400 compounds. A panel of 40 compounds was selected from the top hits based on free energy binding scores. These compounds were investigated using the computer modeling program O. Two additional criteria were applied in order to narrow down the list of candidates: First, the compounds needed to fit deep into the pocket without any clashes; and second, the compounds bound to DksA should have minimal exposed moieties. The compounds selected were further refined according to energy minimization as calculated by the CNS program. 23 compounds were obtained from MolPort and they were tested for their ability to interfere with DksA in a high throughput screen that combined in vitro transcription with highly specific and quantitative qRT-PCR. Five of these compounds, including N-(3,4-dimethoxyphenyl)-1H-1,2,4-triazole-3-carboxamide (1), prevented DksA-mediated repression of rpsM in vitro transcription to some degree. […] Without intending to be limited to any particular theory, the effect that 1 has on DksA-dependent rpsM or hisG gene transcription is potentially due to differences in promoter activity.
# The compounds were initially tested at 0.1 μM and 1 μM using as a target the promoter of the livJ gene that encodes a transporter of branch-chain amino acids (Table 4).
# [10] = test system: SPI2 effector sifA; test: Intracellular expression of SPI2 effector sifA in infected macrophages; format: cell-based; conditions: Salmonella-infected macrophages, 16 μg/ml
# [11] = test system: E. coli strain 3110; test: Minimum inhibitory concentration in EG minimum media, E. coli; format: cell-based; conditions: Escherichia coli
# From the text: DksA controls transcription of metabolic and virulence genes, allowing bacteria to both grow in minimum media and cause disease. Inhibition of bacterial growth in EG minimum media was used as an easy and reliable proxy of the DksA-dependent regulation of metabolism.
# [12] = test system: Salmonella; test: Disk diffusion assay; format: cell-based; conditions: among drugs that inhibited DksA function in the in vitro screens
# Description: Salmonella was grown overnight in LB broth at 37° C. with shaking. The bacterial cultures were diluted by 1:1000 with PBS. 100 μl of the diluted samples were transferred into E-salts glucose agar. The bacteria were spread on the surface of the agar. Two discs (BBL blank paper discs 6 mm) were placed per/plate, and 10 μl of 10 mM or 100 mM stock compound were added to the discs. The plates were incubated at 37° C. overnight. The diameter of inhibition was expressed in mm.
# T1 sequence (P0A1G5 whole entry): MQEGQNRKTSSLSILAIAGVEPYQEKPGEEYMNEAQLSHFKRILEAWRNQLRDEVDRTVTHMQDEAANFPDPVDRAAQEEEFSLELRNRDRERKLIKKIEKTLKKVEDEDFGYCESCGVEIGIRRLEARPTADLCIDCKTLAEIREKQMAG
# T2 sequence (P0A7Z4 whole entry): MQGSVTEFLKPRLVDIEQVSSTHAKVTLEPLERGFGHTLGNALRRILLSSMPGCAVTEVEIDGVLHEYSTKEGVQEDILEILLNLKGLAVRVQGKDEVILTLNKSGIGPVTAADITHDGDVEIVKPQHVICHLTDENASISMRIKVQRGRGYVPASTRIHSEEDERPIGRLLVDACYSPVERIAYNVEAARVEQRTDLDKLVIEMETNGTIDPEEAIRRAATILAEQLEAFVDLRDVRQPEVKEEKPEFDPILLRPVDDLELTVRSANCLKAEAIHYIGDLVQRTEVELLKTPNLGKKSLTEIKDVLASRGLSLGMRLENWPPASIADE
# T2 sequence (P0A8V2 whole entry, further chain): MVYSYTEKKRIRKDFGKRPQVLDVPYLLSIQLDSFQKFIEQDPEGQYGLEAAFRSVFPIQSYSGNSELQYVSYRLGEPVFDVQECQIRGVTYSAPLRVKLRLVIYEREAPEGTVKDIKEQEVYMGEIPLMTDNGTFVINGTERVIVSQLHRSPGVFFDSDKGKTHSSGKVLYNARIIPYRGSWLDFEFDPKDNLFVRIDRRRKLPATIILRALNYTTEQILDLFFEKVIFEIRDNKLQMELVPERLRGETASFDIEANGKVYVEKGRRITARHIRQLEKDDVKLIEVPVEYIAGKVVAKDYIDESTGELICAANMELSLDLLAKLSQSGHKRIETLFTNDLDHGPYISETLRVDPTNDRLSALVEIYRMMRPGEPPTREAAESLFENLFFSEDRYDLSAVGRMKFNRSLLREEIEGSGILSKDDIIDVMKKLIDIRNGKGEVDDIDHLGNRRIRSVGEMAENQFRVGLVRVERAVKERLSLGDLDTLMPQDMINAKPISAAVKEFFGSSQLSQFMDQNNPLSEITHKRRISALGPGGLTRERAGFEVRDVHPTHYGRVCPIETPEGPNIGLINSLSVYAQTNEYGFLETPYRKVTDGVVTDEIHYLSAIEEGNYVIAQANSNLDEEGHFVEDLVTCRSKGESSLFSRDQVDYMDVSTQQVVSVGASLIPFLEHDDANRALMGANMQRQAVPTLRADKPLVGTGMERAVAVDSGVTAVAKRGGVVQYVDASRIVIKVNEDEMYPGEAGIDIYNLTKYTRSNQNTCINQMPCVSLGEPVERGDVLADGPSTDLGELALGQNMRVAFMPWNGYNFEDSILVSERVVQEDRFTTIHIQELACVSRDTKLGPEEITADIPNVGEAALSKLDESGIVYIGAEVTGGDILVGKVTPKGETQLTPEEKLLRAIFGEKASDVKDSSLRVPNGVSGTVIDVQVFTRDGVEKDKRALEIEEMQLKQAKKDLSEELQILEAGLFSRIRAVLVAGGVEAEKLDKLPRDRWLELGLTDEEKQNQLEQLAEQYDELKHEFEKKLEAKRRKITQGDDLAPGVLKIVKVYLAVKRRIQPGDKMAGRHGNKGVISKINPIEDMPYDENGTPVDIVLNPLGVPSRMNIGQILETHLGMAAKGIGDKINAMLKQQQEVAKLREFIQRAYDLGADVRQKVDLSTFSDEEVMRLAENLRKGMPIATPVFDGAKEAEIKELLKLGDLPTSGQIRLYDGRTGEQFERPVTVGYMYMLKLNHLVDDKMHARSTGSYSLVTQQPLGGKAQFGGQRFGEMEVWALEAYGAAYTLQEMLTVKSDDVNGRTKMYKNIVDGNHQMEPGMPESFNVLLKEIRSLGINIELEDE
# T2 sequence (P0A8T7 whole entry, further chain): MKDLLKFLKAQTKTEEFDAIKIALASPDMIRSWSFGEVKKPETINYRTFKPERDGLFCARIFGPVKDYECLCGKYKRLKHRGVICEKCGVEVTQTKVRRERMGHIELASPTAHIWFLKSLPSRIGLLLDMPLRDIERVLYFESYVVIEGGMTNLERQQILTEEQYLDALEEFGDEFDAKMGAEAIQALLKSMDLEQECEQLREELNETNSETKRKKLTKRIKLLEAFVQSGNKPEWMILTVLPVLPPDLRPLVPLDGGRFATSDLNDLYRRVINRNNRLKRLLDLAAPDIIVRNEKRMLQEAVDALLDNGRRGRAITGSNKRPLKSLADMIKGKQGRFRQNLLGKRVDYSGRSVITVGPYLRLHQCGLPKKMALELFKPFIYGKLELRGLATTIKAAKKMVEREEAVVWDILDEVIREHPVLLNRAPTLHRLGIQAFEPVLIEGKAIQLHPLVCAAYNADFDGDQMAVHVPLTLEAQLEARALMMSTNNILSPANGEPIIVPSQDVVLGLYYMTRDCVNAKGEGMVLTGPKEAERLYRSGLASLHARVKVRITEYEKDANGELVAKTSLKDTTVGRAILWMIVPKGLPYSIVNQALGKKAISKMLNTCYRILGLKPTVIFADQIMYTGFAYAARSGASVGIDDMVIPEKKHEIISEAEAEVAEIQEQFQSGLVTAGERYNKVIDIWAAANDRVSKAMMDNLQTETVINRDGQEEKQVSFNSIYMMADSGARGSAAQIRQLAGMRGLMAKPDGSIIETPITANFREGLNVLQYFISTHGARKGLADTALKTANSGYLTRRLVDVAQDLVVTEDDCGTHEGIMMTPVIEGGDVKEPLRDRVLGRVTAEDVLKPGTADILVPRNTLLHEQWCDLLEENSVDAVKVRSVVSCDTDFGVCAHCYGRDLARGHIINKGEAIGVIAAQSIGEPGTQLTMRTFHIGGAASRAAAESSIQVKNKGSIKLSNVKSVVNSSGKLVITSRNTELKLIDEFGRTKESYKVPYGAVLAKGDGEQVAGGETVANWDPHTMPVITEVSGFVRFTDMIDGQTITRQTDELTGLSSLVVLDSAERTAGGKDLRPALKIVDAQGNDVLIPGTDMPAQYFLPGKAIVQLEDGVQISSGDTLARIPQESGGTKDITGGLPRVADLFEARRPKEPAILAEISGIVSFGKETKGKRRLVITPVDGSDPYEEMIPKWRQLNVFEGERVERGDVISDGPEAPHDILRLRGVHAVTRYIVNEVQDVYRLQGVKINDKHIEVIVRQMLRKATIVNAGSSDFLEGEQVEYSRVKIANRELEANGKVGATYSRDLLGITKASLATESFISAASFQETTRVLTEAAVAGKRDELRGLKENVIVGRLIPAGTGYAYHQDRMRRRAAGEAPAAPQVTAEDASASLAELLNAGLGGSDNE
# T2 sequence (P0A800 whole entry, further chain): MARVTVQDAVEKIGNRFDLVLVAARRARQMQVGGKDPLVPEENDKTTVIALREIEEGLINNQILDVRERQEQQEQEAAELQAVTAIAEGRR
# T2 sequence (P00579 whole entry, further chain): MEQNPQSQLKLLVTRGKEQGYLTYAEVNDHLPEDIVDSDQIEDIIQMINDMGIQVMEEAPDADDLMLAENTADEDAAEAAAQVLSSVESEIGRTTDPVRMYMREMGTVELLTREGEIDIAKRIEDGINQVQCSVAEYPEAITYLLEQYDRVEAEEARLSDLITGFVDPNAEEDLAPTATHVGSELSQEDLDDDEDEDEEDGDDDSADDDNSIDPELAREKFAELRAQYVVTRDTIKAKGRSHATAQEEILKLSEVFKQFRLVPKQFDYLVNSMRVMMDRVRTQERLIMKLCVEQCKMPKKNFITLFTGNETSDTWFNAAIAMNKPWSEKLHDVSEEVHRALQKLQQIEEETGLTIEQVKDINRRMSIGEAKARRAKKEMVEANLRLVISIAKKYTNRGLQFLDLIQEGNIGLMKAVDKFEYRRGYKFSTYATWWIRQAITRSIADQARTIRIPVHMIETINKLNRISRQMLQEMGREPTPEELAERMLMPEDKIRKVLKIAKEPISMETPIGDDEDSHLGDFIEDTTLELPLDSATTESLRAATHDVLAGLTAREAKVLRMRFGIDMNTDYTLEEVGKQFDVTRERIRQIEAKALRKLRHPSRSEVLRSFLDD
Structure (SMILES),"In vitro transcription assay result, 0.1 μM [2]","In vitro transcription assay result, 1 μM [2]",IVT [2] [µM],Growth in EG at concentration tested 1 μg/ml ([3]; 18 h),Growth in EG at concentration tested 2 μg/ml ([3]; 18 h),Growth in EG at concentration tested 4 μg/ml ([3]; 18 h),Growth in EG at concentration tested 8 μg/ml ([3]; 18 h),Growth in EG at concentration tested 16 μg/ml ([3]; 18 h),"MIC ([3]; Salmonella, 14028S, 18 h) [µg/mL]","Compound Solubility, 1 μM [4]","Compound Solubility, 10 μM [4]","Compound Solubility, 100 μM [4]","Compound Solubility, 1 mM [4]","Compound Solubility, 10 mM [4]","Compound Solubility, 16 mg/ml [4]",other results
"COc1ccc(CCNC(=O)c2nc[nH]n2)cc1 [Compound 21, N-(4-methoxyphenethyl)-1H-1,2,4-triazole-3-carboxamide]",no induction,no induction,0.1,+,+,+,+,+,32,water,water,water,water,water,DMSO,"Anti-Salmonella activity of 4-nitroquinoline-N-oxide, nitrofurazone and mytomycin in combination [1]: enhanced the anti-Salmonella activity"
"COc1ccc(NC(=O)c2nc[nH]n2)cc1OC [Compound 1, N-(3,4-dimethoxyphenyl)-1H-1,2,4-triazole-3-carboxamide]",no change,good repression,1,+,+,+,+,+,32,water,water,water,water,water,DMSO,"Inhibition of DksA-dependent activation of hisG in vitro transcription [5]: completely inhibited; Antimicrobial activity against intracellular Salmonella growing in macrophages [6]: potent antimicrobial activity; Antimicrobial activity against intracellular Salmonella growing in macrophages ([6]; listed as 916): inhibits intracellular growth; Intracellular growth of ΔdksA Salmonella ([6]; ΔdksA Salmonella, off-target control): unaffected; Effect on rpsM in vitro transcription by the RNA polymerase itself [7]: did not affect; Lactate dehydrogenase (LDH) released from J774 cells [8]: did not change; Inhibition of DksA-mediated repression of rpsM in vitro transcription ([9]; 1 μM): completely inhibited; Activity against DksA-mediated repression of rpsM in vitro transcription ([9]; qualitative, listed as 916): excellent activity; also recorded: best in vitro efficacy; MIC ([3]; read-out: Minimum inhibitory concentration): 32 µg/mL and 129 µM; Intracellular expression of the SPI2 effector sifA [10]: repressed transcription; Intracellular expression of the SPI2 effector sifA ([10]; listed as 916): inhibits the intracellular expression; MIC [11]: 32 µg/mL; MIC ([11]; converted): 129 µM; Anti-Salmonella activity in disk diffusion assays [12]: greatest anti-Salmonella activity"
